# Experimental data: ChEMBL document CHEMBL4428125, “8-Substituted 1,3-dimethyltetrahydropyrazino[2,1-f]purinediones: Water-soluble adenosine receptor antagonists and monoamine oxidase B inhibitors” (Bioorg Med Chem, 2016)
# Assays:
# Adenosine receptor A2a [1] = target: Adenosine receptor A2a (Rattus norvegicus, UniProt P30543); assay: Displacement of [3H]MSX from A2A receptor in rat brain striatum membranes measured after 30 mins by liquid scintillation counting method; type: cell membranes
# [2] = target: T1, Amine oxidase [flavin-containing] B (Homo sapiens, UniProt P27338); assay: Inhibition of recombinant human MAO-B expressed in baculovirus infected BTI insect cells at 10 uM preincubated for 30 mins followed by addition of p-tyramine as substrate measured over 45 mins by Amplex Red MAO assay relative to control; conditions: 0.75 h
# T1 sequence (P27338 whole entry): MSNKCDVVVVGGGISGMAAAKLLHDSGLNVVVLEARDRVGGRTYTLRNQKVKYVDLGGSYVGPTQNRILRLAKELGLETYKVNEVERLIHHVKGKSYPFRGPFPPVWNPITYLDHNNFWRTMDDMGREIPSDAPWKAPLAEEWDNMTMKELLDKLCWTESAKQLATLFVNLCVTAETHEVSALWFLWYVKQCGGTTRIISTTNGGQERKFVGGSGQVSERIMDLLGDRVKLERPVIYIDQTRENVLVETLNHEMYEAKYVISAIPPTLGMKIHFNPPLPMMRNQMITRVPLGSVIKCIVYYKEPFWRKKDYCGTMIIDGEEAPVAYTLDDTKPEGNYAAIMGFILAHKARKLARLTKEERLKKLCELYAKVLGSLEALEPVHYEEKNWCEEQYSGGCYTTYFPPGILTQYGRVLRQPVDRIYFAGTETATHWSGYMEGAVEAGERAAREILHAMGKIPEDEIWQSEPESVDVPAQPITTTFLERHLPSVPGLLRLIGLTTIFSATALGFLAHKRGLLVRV
# [3] = target: T2, Adenosine receptor A3 (Homo sapiens) (UniProt P0DMS8); assay: Displacement of [3H]PSB-11 from human A3 receptor expressed in CHO cell membrane at 10 uM by liquid scintillation counting method relative to control relative to control; type: cell membranes
# T2 sequence (whole entry): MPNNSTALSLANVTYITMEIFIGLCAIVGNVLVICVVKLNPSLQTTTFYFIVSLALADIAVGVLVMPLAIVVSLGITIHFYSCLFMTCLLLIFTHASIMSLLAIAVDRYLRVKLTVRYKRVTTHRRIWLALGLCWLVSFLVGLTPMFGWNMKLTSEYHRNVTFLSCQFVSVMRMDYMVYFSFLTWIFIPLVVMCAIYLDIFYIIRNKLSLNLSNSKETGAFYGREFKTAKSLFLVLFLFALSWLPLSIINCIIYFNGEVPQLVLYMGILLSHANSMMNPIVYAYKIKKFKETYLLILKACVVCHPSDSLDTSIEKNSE
# [4] = target: T1, Amine oxidase [flavin-containing] B; assay: Inhibition of recombinant human MAO-B expressed in baculovirus infected BTI insect cells preincubated for 30 mins followed by addition of p-tyramine as substrate measured over 45 mins by Amplex Red MAO assay
# [5] = target: T3, Amine oxidase [flavin-containing] A (Homo sapiens, UniProt P21397); assay: Inhibition of recombinant human MAO-A expressed in baculovirus infected BTI insect cells at 10 uM preincubated for 30 mins followed by addition of p-tyramine as substrate measured over 45 mins by Amplex Red MAO assay relative to control; conditions: 0.75 h
# T3 sequence (P21397 whole entry): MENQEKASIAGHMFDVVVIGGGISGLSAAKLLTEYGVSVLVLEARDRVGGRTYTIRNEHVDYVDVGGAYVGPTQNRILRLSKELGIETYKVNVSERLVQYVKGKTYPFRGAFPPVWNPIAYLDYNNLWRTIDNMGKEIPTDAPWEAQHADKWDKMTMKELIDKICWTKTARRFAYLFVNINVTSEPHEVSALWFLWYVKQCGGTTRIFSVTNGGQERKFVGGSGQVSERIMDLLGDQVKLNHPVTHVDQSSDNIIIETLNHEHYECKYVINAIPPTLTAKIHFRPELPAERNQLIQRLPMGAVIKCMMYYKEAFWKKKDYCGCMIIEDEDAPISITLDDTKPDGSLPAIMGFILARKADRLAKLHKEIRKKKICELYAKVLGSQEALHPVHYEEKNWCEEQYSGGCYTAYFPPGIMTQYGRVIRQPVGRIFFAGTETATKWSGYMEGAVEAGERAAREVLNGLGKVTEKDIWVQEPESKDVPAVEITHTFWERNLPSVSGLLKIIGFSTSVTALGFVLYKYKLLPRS
# [6] = target: T4, Adenosine receptor A1 (Rattus norvegicus) (UniProt P25099); assay: Displacement of [3H]CCPA from A1 receptor in rat brain cortex membranes at 1.5 uM by liquid scintillation counting method; type: cell membranes
# T4 sequence (whole entry): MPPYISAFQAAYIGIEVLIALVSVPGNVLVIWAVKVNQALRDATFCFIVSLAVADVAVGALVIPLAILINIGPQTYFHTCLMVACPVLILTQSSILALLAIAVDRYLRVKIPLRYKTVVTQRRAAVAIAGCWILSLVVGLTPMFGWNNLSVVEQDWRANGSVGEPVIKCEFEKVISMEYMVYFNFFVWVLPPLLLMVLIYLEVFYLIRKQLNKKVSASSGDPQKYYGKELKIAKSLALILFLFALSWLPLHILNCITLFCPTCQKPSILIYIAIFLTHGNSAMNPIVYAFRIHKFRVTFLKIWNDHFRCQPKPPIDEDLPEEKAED
# [7] = target: T5, Adenosine receptor A2b (Homo sapiens) (UniProt P29275); assay: Displacement of [3H]PSB-603 from human A2B receptor expressed in CHO cell membrane at 1 uM relative to control; type: cell membranes
# T5 sequence (whole entry): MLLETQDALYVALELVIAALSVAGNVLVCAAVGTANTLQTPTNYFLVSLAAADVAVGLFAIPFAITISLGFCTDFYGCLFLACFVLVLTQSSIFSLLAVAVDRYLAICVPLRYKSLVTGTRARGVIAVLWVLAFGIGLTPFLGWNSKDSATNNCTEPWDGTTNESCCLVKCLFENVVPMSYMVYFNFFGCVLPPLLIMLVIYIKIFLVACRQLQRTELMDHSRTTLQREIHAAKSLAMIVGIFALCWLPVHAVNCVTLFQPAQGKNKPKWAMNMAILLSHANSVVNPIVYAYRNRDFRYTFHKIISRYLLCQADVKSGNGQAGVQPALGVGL
# Adenosine receptor A1 [8] = target: T6, Adenosine receptor A1 (Homo sapiens, UniProt P30542); assay: Displacement of [3H]CCPA from human A1 receptor expressed in CHO cell membrane by liquid scintillation counting method; type: cell membranes
# T6 sequence (P30542 whole entry): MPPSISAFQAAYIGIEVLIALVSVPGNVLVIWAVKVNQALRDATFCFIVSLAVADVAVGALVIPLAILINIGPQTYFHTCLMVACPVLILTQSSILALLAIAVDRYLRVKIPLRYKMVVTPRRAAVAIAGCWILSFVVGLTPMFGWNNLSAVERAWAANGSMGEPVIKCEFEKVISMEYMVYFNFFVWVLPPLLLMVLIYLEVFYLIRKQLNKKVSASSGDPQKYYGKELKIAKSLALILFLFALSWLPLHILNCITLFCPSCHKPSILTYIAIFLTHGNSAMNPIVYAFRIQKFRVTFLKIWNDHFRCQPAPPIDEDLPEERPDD
# [9] = Thermodynamic solubility of the compound at pH 4; type: physicochemical; conditions: buffer, read-out: Therm_solubility
# Adenosine receptor A1 [10] = target: T7, Adenosine receptor A1 (Rattus norvegicus, UniProt P25099); assay: Displacement of [3H]CCPA from A1 receptor in rat brain cortex membranes by liquid scintillation counting method; type: cell membranes
# T7 sequence (P25099 whole entry): T4 sequence (whole entry)
# [11] = Thermodynamic solubility of the compound at pH 7.4; type: physicochemical; conditions: buffer, read-out: Therm_solubility
# Adenosine receptor A3 = target: T8, Adenosine receptor A3 (Homo sapiens, UniProt P0DMS8); assay: Displacement of [3H]PSB-11 from human A3 receptor expressed in CHO cell membrane by liquid scintillation counting method relative to control; type: cell membranes
# T8 sequence (P0DMS8 whole entry): T2 sequence (whole entry)
# [12] = target: T3, Amine oxidase [flavin-containing] A; assay: Inhibition of recombinant human MAO-A expressed in baculovirus infected BTI insect cells preincubated for 30 mins followed by addition of p-tyramine as substrate measured over 45 mins by Amplex Red MAO assay
# [13] = Thermodynamic solubility of the compound at pH 1; type: physicochemical; conditions: buffer, read-out: Therm_solubility
# Adenosine receptor A2a [14] = target: Adenosine receptor A2a (Homo sapiens, UniProt P29274); assay: Displacement of [3H]MSX from human A2A receptor measured after 30 mins by liquid scintillation counting method
# Sequence of Adenosine receptor A2a (Homo sapiens, UniProt P29274) (P29274 whole entry): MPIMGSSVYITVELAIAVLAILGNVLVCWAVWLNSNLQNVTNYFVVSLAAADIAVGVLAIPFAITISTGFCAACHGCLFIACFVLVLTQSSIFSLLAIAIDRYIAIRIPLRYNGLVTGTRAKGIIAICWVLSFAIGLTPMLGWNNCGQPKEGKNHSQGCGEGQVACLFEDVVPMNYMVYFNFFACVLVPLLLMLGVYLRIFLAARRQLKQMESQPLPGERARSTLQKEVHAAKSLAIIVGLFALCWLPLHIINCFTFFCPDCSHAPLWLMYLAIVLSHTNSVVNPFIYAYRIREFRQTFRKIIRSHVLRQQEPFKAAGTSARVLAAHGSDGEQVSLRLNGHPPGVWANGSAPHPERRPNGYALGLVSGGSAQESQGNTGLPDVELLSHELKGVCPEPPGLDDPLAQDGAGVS
# Adenosine receptor A2b = target: T9, Adenosine receptor A2b (Homo sapiens, UniProt P29275); assay: Displacement of [3H]PSB-603 from human A2B receptor expressed in CHO cell membrane; type: cell membranes
# T9 sequence (P29275 whole entry): T5 sequence (whole entry)
# [15] = target: Adenosine receptor A2a (Rattus norvegicus) (UniProt P30543); assay: Displacement of [3H]MSX from A2A receptor in rat brain striatum membranes at 1 uM measured after 30 mins by liquid scintillation counting method relative to control; type: cell membranes
# Sequence of Adenosine receptor A2a (Rattus norvegicus) (P30543 whole entry): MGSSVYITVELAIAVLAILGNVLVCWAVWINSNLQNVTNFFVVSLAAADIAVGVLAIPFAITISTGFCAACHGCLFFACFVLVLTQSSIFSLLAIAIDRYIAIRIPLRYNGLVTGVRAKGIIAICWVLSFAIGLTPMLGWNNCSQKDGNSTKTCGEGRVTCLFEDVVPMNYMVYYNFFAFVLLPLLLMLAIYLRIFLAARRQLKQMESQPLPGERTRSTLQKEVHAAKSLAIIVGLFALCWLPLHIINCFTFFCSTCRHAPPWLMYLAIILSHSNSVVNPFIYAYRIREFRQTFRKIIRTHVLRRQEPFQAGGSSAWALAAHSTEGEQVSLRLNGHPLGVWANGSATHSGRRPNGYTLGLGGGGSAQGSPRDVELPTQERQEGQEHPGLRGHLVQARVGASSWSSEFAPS
# [16] = target: T2, Adenosine receptor A3 (Homo sapiens); assay: Displacement of [3H]PSB-11 from human A3 receptor expressed in CHO cell membrane at 3 uM by liquid scintillation counting method relative to control relative to control; type: cell membranes
# [17] = target: T5, Adenosine receptor A2b (Homo sapiens); assay: Displacement of [3H]PSB-603 from human A2B receptor expressed in CHO cell membrane at 0.3 uM relative to control; type: cell membranes
# Sequence of Adenosine receptor A2a (Rattus norvegicus, UniProt P30543) (P30543 whole entry): as above
SMILES,Ki (Adenosine receptor A2a [1]),inhibition at 10 µM [2],Activity [3],IC50 [4],inhibition at 10 µM [5],Activity [6],Activity [7],Ki (Adenosine receptor A1 [8]),solubility thermodynamic [9],Ki (Adenosine receptor A1 [10]),solubility thermodynamic [11],Ki (Adenosine receptor A3),IC50 [12],solubility thermodynamic [13],Ki (Adenosine receptor A2a [14]),Ki (Adenosine receptor A2b),Activity [15],Activity [16],Activity [17]
Cn1c(=O)c2c(nc3n2CCN(CCCn2cccc2)C3)n(C)c1=O,> 1000 nM,27%,,> 10000 nM,7%,-4%,10%,,< 200 µg/mL,> 1500 nM,< 70 µg/mL,> 3000 nM,> 10000 nM,> 1500 µg/mL,,> 1000 nM,10%,3%,
COc1ccc(Br)cc1CCN1CCn2c(nc3c2c(=O)n(C)c(=O)n3C)C1,> 1000 nM,3%,,> 10000 nM,34%,3%,8%,,< 0.5 µg/mL,> 1500 nM,< 0.5 µg/mL,> 3000 nM,> 10000 nM,300 µg/mL,,> 1000 nM,27%,14%,
Cn1c(=O)c2c(nc3n2CCN(CCc2ccc4c(c2)OCO4)C3)n(C)c1=O,6170 nM,24%,,> 10000 nM,,5%,12%,,1 µg/mL,> 1500 nM,< 0.5 µg/mL,> 3000 nM,,300 µg/mL,,> 1000 nM,,9%,
Cn1c(=O)c2c(nc3n2CCN(Cc2csc(-c4cccc(Cl)c4)n2)C3)n(C)c1=O,160 nM,-2%,40%,> 10000 nM,-13%,,6%,73 nM,,437 nM,2 µg/mL,> 10000 nM,> 10000 nM,,363 nM,> 1000 nM,,,
Cn1c(=O)c2c(nc3n2CCN(Cc2csc(-c4ccc(Cl)cc4)n2)C3)n(C)c1=O,62 nM,47%,43%,,3%,,17%,492 nM,,76 nM,< 0.5 µg/mL,> 10000 nM,> 10000 nM,,346 nM,> 1000 nM,,,
Cn1c(=O)c2c(nc3n2CCN(CCc2cc(C(F)(F)F)ccc2F)C3)n(C)c1=O,> 1000 nM,58%,14%,,,4%,,,< 0.5 µg/mL,> 1500 nM,< 0.5 µg/mL,> 10000 nM,,400 µg/mL,,> 300 nM,25%,,13%

# Second part, the compound after the results:
Ki (Adenosine receptor A2a [1]),inhibition at 10 µM [2],Activity [3],IC50 [4],inhibition at 10 µM [5],Activity [6],Activity [7],Ki (Adenosine receptor A1 [8]),solubility thermodynamic [9],Ki (Adenosine receptor A1 [10]),solubility thermodynamic [11],Ki (Adenosine receptor A3),IC50 [12],solubility thermodynamic [13],Ki (Adenosine receptor A2a [14]),Ki (Adenosine receptor A2b),Activity [15],Activity [16],Activity [17],SMILES
450 nM,26%,35%,> 10000 nM,16%,17%,19%,3880 nM,< 0.5 µg/mL,> 1500 nM,< 0.5 µg/mL,> 10000 nM,> 10000 nM,100 µg/mL,512 nM,> 1000 nM,,,,Cn1c(=O)c2c(nc3n2CCN(CCCc2cccc(Br)c2)C3)n(C)c1=O
> 10000 nM,,,7590 nM,,12%,13%,,,> 1500 nM,,> 3000 nM,,,,> 1000 nM,26%,11%,,Cn1c(=O)c2c(nc3n2CCN(C2Cc4ccccc4C2)C3)n(C)c1=O
> 1000 nM,16%,32%,> 10000 nM,11%,-1%,,,60 µg/mL,> 1500 nM,20 µg/mL,> 10000 nM,> 10000 nM,1100 µg/mL,,> 300 nM,24%,,4%,Cn1c(=O)c2c(nc3n2CCN(CCOc2ccccc2)C3)n(C)c1=O
4210 nM,,45%,2130 nM,,32%,,,1 µg/mL,> 1500 nM,< 0.5 µg/mL,> 10000 nM,,1000 µg/mL,,> 300 nM,,,10%,Cn1c(=O)c2c(nc3n2CCN(C2CCc4ccccc42)C3)n(C)c1=O (racemic)
2120 nM,,42%,3650 nM,,26%,,,< 0.5 µg/mL,> 1500 nM,< 0.5 µg/mL,> 10000 nM,,700 µg/mL,,> 300 nM,,,29%,Cn1c(=O)c2c(nc3n2CCN(CCc2cccc(Br)c2)C3)n(C)c1=O
